Experimental data from paper PMC10150366, “Discovery of an In Vivo Chemical Probe for BCL6 Inhibition by Optimization of Tricyclic Quinolinones” (Journal of Medicinal Chemistry, 2023).

How the values were obtained:
KvLQT1/minK = KvLQT1/minK (Homo sapiens, UniProt P51787); assay: SAFETYscan Ion Channel KvLQT1/minK Blocker; format: cell-based
Text: (§1) Supplement jm3c00155_si_002.xlsx, sheet "SAFETYScan" | column: RC50 (uM); Max Response

CHRM1 = target: T1, CHRM1 (Homo sapiens, UniProt P11229); assay: SAFETYscan Calcium Flux CHRM1 Agonist; format: cell-based
T1 sequence (P11229 1-460): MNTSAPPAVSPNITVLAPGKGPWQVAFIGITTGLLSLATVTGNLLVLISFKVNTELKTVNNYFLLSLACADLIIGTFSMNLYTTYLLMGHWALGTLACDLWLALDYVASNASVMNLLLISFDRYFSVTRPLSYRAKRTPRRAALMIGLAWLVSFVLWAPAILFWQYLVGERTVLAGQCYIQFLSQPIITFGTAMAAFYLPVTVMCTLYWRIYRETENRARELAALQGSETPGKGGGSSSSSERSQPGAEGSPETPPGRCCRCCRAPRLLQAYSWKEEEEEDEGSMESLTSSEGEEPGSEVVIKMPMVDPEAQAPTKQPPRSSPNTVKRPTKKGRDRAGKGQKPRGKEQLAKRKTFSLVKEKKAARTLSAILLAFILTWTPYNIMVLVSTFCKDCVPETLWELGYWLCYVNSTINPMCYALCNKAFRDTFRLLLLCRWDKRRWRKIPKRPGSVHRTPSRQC
Text: as §1

ADRB1 = ADRB1 (Homo sapiens, UniProt P08588); assay: SAFETYscan cAMP ADRB1 Agonist; format: cell-based
Text: as §1

HRH2 = HRH2 (Homo sapiens, UniProt P25021); assay: SAFETYscan cAMP HRH2 Antagonist; format: cell-based
Text: (§2) Supplement jm3c00155_si_002.xlsx, sheet "SAFETYScan" | column: RC50 (uM); Hill; Max Response

COX1 = COX1 (Homo sapiens, UniProt P23219); assay: SAFETYscan Enzymatic COX1 Inhibitor; format: biochemical
Text: as §2

HTR1B = HTR1B (Homo sapiens, UniProt P28222); assay: SAFETYscan cAMP HTR1B Antagonist; format: cell-based
Text: as §1

CNR1 = CNR1 (Homo sapiens, UniProt P21554); assay: SAFETYscan cAMP CNR1 Antagonist; format: cell-based
Text: as §1

DRD2S [1] = target: T2, DRD2S (Homo sapiens, UniProt P14416); assay: SAFETYscan cAMP DRD2S Antagonist; format: cell-based
Text: as §1

EDNRA [2] = target: T3, EDNRA (Homo sapiens, UniProt P25101); assay: SAFETYscan Calcium Flux EDNRA Agonist; format: cell-based
T3 sequence (P25101 21-427): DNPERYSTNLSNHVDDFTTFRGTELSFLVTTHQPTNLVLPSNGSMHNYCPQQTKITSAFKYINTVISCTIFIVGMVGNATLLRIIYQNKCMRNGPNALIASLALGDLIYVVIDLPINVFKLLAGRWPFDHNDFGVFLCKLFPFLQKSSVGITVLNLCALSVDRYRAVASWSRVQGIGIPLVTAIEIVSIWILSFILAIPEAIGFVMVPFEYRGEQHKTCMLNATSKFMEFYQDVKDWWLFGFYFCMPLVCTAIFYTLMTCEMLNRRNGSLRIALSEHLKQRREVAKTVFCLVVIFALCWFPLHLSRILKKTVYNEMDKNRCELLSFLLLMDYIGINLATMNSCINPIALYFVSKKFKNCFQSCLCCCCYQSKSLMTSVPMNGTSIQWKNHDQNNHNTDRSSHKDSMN
Text: as §1

ROCK1 = ROCK1 (Homo sapiens, UniProt Q13464); assay: SAFETYscan Kinases Binding ROCK1 Inhibitor
Text: as §1

ADRB2 = ADRB2 (Homo sapiens, UniProt P07550); assay: SAFETYscan cAMP ADRB2 Antagonist; format: cell-based
Text: as §2

OCI-Ly3 = assay: 14-day cell proliferation assay, OCI-Ly3; format: cell-based; details: Homo sapiens, 14-day assay, BCL6-independent line
Text: DMSO final concentration.
After a short centrifugation the
(1st emission filter) / 450-80 nm (2nd emission filter). The % inhibition at each test concentration was […]
sigmoidal four-parameter logistic fit equation.
2.3 Cell proliferation assay
Aldrich) supplemented with 10% FBS (Gibco). Compounds were initially dispensed into 96-well U-bottom […]
transferred onto the cells.
Assay plates containing cells
(Beckman Coulter). The volume of medium containing 2500 cells in the control well was calculated and this volume of cells was transferred from every well of the assay plates to the corresponding well of the fresh plates containing compound. After 14 days, CellTiter Glo reagent (Promega) was added to the medium in each well of the assay plate at a ratio of 1:2, mixed on a plate shaker, then incubated at room temperature for 10 minutes. Luminescence was measured using an Envision plate reader (Perkin Elmer) and the relative luminescence at each compound concentration, compared to DMSO alone, was calculated. GI50 were determined using a 4-parameter curve fit in Dotmatics (Bishops Stortford, UK).

EDNRA [3] = target: T3, EDNRA; assay: SAFETYscan Calcium Flux EDNRA Antagonist; format: cell-based
Text: as §1

HTR2A = HTR2A (Homo sapiens, UniProt P28223); assay: SAFETYscan Calcium Flux HTR2A Agonist; format: cell-based
Text: as §1

COX2 = COX2 (Homo sapiens, UniProt P35354); assay: SAFETYscan Enzymatic COX2 Inhibitor; format: biochemical
Text: as §1

DRD2S [4] = target: T2, DRD2S; assay: SAFETYscan cAMP DRD2S Agonist; format: cell-based
Text: as §2

OPRD1 = OPRD1 (Homo sapiens, UniProt P41143); assay: SAFETYscan cAMP OPRD1 Agonist; format: cell-based
Text: as §1

AVPR1A = AVPR1A (Homo sapiens, UniProt P37288); assay: SAFETYscan Calcium Flux AVPR1A Antagonist; format: cell-based
Text: as §1

ADRB2, sequence (P07550 whole entry): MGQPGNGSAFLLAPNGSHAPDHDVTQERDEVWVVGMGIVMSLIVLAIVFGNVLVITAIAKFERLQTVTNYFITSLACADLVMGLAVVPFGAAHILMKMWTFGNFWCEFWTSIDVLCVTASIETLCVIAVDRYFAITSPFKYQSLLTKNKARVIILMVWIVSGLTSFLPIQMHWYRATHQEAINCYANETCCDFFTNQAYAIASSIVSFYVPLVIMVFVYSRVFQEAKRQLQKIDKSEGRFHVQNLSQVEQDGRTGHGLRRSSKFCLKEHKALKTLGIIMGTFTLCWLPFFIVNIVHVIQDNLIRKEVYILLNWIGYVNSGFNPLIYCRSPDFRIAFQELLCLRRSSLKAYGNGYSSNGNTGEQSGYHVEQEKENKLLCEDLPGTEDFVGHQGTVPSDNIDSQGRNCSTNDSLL
COX1, sequence (P23219 24-599): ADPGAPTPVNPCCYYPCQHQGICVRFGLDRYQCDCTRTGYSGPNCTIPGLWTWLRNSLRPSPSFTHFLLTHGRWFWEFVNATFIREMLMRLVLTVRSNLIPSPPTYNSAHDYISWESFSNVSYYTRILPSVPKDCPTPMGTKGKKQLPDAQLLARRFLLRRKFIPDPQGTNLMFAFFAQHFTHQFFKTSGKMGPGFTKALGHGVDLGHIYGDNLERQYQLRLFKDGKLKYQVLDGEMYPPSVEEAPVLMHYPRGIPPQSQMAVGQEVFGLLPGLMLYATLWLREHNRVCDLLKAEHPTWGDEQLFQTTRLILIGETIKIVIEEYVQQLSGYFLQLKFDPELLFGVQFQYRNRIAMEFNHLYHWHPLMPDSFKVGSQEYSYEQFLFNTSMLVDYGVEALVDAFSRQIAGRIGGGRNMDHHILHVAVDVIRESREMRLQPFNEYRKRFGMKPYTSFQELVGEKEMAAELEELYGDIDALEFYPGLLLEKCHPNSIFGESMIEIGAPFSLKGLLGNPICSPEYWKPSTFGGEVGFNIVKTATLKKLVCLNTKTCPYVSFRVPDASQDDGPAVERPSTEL
HRH2, sequence (P25021 whole entry): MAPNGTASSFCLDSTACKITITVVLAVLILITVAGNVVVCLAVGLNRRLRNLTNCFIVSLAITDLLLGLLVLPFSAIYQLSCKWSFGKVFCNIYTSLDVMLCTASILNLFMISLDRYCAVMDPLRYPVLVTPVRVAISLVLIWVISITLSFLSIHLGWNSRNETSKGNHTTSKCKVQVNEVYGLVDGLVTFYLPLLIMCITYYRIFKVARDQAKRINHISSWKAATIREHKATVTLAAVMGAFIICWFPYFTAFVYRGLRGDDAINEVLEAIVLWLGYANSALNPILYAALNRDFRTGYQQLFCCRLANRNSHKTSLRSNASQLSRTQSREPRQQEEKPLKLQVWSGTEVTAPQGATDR
T2 sequence (P14416 1-414 isoform P14416-2): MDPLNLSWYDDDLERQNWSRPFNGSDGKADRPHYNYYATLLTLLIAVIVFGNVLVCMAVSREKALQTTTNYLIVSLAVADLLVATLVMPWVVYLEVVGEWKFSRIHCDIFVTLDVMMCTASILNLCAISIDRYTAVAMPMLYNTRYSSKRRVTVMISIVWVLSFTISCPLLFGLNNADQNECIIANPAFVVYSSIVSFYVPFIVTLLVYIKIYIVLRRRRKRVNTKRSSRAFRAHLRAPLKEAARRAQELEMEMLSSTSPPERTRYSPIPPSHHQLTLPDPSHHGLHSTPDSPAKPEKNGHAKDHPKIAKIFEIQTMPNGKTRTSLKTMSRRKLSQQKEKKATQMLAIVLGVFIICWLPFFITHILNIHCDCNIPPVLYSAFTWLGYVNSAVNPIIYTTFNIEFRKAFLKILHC
OPRD1, sequence (P41143 whole entry): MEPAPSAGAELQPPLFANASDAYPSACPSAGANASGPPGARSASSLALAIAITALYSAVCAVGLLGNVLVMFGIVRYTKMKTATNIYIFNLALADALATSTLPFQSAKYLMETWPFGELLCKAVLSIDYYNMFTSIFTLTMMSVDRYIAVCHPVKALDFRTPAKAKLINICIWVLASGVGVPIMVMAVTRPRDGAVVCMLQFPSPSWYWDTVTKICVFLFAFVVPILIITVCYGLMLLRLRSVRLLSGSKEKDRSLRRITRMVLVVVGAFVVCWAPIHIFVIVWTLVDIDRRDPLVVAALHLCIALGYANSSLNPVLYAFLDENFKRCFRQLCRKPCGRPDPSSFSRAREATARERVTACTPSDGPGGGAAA
COX2, sequence (P35354 18-604): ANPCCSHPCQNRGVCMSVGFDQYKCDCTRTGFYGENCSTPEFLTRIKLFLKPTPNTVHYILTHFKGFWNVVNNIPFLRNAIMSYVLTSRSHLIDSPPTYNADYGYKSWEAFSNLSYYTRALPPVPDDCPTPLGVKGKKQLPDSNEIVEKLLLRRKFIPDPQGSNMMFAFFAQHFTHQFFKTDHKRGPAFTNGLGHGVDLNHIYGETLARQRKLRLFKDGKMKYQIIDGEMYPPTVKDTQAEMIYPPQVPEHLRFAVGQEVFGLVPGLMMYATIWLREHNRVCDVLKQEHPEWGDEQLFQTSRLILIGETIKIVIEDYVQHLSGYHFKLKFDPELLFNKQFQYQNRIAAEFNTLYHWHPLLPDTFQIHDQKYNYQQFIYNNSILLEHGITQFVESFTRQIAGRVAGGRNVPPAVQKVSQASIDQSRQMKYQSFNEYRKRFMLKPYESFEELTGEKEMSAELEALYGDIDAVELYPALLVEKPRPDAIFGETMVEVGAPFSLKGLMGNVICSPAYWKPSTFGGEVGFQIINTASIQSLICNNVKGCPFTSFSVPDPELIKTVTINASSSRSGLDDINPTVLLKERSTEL
HTR2A, sequence (P28223 whole entry): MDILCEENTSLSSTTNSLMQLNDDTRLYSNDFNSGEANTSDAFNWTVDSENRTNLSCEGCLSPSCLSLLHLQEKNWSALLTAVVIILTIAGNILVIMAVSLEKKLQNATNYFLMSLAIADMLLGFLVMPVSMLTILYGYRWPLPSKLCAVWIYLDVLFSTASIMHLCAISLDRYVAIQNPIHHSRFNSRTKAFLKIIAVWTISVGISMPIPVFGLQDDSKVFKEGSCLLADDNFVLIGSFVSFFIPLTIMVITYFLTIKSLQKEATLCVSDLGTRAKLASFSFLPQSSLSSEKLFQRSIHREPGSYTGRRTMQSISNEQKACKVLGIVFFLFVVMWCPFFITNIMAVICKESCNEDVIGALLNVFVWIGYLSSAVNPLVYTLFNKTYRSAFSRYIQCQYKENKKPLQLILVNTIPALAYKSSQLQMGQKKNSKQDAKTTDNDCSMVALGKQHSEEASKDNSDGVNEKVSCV
AVPR1A, sequence (P37288 whole entry): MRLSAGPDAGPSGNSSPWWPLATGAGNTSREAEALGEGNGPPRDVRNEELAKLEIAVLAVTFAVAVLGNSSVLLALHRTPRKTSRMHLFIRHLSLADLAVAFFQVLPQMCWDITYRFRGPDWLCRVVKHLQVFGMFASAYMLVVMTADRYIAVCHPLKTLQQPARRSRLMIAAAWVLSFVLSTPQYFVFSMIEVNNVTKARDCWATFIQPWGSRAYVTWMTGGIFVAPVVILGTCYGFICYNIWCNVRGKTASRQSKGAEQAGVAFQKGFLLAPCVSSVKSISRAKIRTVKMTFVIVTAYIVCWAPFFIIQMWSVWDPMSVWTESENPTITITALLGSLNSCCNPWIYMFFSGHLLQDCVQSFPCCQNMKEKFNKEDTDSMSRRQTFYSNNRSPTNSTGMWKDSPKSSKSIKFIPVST
CNR1, sequence (P21554 whole entry): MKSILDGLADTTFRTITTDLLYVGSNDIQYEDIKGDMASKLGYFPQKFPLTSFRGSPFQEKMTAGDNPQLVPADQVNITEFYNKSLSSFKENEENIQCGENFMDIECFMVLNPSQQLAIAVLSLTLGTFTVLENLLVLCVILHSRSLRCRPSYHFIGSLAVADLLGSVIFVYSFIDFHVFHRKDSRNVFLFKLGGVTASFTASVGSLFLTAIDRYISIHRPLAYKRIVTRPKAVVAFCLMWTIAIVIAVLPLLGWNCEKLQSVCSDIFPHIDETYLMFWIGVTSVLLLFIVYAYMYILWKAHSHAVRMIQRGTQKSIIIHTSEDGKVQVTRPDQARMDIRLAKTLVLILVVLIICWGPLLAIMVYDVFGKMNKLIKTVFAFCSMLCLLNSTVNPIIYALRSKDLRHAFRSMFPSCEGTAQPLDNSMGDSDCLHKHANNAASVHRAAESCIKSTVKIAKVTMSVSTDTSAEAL
HTR1B, sequence (P28222 whole entry): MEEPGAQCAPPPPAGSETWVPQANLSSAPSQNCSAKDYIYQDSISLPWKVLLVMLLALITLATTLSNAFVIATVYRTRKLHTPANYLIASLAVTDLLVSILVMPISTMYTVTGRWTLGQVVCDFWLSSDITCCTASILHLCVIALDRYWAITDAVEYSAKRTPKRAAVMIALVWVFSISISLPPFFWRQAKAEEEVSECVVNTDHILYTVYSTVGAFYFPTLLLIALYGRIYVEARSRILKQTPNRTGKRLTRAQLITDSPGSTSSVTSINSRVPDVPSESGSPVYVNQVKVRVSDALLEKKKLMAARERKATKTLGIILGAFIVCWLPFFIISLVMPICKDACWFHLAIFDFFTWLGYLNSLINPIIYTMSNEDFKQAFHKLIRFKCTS
ADRB1, sequence (P08588 whole entry): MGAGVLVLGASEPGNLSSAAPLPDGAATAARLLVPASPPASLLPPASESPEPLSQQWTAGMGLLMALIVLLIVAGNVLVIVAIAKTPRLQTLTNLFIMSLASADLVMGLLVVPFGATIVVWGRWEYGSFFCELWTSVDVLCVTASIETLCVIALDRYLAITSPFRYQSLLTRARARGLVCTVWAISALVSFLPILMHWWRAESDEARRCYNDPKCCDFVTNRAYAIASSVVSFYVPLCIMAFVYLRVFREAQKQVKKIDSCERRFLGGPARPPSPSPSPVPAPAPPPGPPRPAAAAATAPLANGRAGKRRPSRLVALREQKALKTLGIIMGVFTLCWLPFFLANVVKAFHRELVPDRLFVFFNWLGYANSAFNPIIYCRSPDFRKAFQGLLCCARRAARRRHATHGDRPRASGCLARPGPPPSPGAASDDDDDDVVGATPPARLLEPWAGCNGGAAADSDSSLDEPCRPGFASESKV

SMILES: Cn1c(=O)c2c(c3cc(Nc4ccnc(F)c4Cl)ccc31)N[C@@H](C1CC1)C(F)(F)CO2 [compound 17, (S)-10-((3-chloro-2-fluoropyridin-4-yl)amino)-2-cyclopropyl-3,3-difluoro-7-methyl-1,2,3,4-tetrahydro-[1,4]oxazepino[2,3-c]quinolin-6(7H)-one]
- Emax (KvLQT1/minK; read-out: Max Response): 12.6%
- IC50 (KvLQT1/minK; read-out: RC50 (IC50)): > 10 µM
- EC50 (CHRM1): > 10 µM
- Emax (CHRM1; CHRM1, Calcium Flux, Agonist, read-out: Max Response): 1.44%
- Emax (ADRB1; read-out: Max Response): 0%
- EC50 (ADRB1; read-out: RC50 (EC50)): > 10 µM
- Hill (HRH2): 1.03
- Emax (HRH2; read-out: Max Response): 65.2%
- IC50 (HRH2; read-out: RC50 (IC50)): 4.76 µM
- Hill (COX1): 3.28
- Emax (COX1; read-out: Max Response): 93.1%
- IC50 (COX1; read-out: RC50 (IC50)): 4.54 µM
- IC50 (HTR1B): > 10 µM
- Emax (HTR1B; HTR1B, cAMP, Antagonist, read-out: Max Response): 0%
- IC50 (CNR1): > 10 µM
- Emax (CNR1; CNR1, cAMP, Antagonist, read-out: Max Response): 0%
- IC50 (DRD2S [1]): > 10 µM
- Emax (DRD2S [1]; DRD2S, cAMP, Antagonist, read-out: Max Response): 0%
- Emax (EDNRA [2]; read-out: Max Response): 0%
- EC50 (EDNRA [2]; read-out: RC50 (EC50)): > 10 µM
- Emax (ROCK1; read-out: Max Response): 0%
- IC50 (ROCK1; read-out: RC50 (IC50)): > 10 µM
- Hill (ADRB2): 1.29
- Emax (ADRB2; read-out: Max Response): 89%
- IC50 (ADRB2; read-out: RC50 (IC50)): 1.77 µM
- GI50 (OCI-Ly3): 1.85 µM
- Emax (EDNRA [3]; read-out: Max Response): 0%
- IC50 (EDNRA [3]; read-out: RC50 (IC50)): > 10 µM
- EC50 (HTR2A): > 10 µM
- Emax (HTR2A; HTR2A, Calcium Flux, Agonist, read-out: Max Response): 2.33%
- Emax (COX2; read-out: Max Response): 0%
- IC50 (COX2; read-out: RC50 (IC50)): > 10 µM
- EC50 (DRD2S [4]): 3.5 µM
- Hill (DRD2S [4]; DRD2S, cAMP, Agonist): 1.25
- Emax (DRD2S [4]; DRD2S, cAMP, Agonist, read-out: Max Response): 72.1%
- EC50 (OPRD1): > 10 µM
- Emax (OPRD1; OPRD1, cAMP, Agonist, read-out: Max Response): 23.6%
- Emax (AVPR1A; read-out: Max Response): 2.15%
- IC50 (AVPR1A; read-out: RC50 (IC50)): > 10 µM
